Publication PMC3849647, “Pharmacokinetics and biodistribution of the cyclin-dependent kinase inhibitor -CR8- in mice” (BMC Pharmacology & Toxicology, 2013)
Where “and” joins values, the source holds several entries; their conditions need not be identical. Equal values may be shown once. Read-outs that look alike come from different tables or passages of the source.

Assays:
[1] = Pharmacokinetics of CR8 in mouse plasma after oral and i.v. administration (HPLC-UV); type: in vivo, mice
Description: 70 μl plasma was added to 140 μl methanol and vortexed for 15 sec. Samples were centrifuged at 10000 g for 10 minutes, and 50 μl from the supernatant were injected into the HPLC system.
Female BALB/c mice 8–10 weeks old and weighing 18–21 g were obtained from Scanbur, Sollentuna, Sweden. The mice were allowed to acclimatize to their surroundings for one week before starting treatment. The mice were fed pelleted food and water ad libitum.
CR8 was dissolved in DMSO: 50 mM HCl (10:90 v/v). The first group of mice received i.v. doses of CR8 (50 mg/kg body weight), the second received oral doses of CR8 (100 mg/kg body weight) and three control mice received vehicle alone. Three mice were sacrificed at each time point and blood samples were collected by cardiac puncture into heparinized tubes at 10, 20, 30, 60 min, 2, 4, 6, 8 h post administration. Blood samples were centrifuged immediately after collection at 3000 g for 5 min at 4°C and the plasma was prepared as mentioned previously. Supernatants were collected and all samples were frozen at −20°C directly after preparation until further analysis by HPLC. Other organs including liver, spleen, kidneys, brain, adipose tissue and lungs were removed, washed and snap frozen immediately in liquid nitrogen. Bone marrow was flushed from both femurs and mononuclear cells were counted and frozen. The samples were stored at −20°C to avoid any metabolic activity.
Parameters including distribution volume of the central compartment, elimination rate constant, plasma maximum concentration and micro constants were estimated. Clearance (Cl) and distribution volume at the steady state were calculated from the primary parameters. The plasma concentration versus time curves (AUC) were calculated from the model derived parameters, and the elimination half-lives were calculated from the slope of the terminal elimination phase. Bone marrow data were derived after adjustment of concentrations to 10^9 cells (= approx. 1 g of tissue). The pharmacokinetic modeling was performed using WinNonlin version 5.2 (Pharsight, USA).
Oral bioavailability (F) defined as the fraction of the oral administered dose of CR8 that reaches the systemic circulation was calculated according to the following formula:
F=AUCpo∗doseIV/AUCIV∗dosepo

[2] = system: CDK; parameters: method as in PMID 18574471; conditions: in-vitro; cited from earlier work
[3] = Biodistribution of CR8 to mouse organs after oral administration; type: in vivo, mice; parameters: V2/F: unit not given here; conditions: for AUC / Beta-HL / V2/F / Cmax: single oral 100 mg/kg; for Tissue/plasma exposure ratio (% AUC organ vs. AUC plasma) / Kp: oral 100 mg/kg, 100 mg/kg; for Kp / Cmax: female, BALB/c, mouse; for Kp: po
Description: CR8 was dissolved in DMSO: 50 mM HCl (10:90 v/v). The first group of mice received i.v. doses of CR8 (50 mg/kg body weight), the second received oral doses of CR8 (100 mg/kg body weight) and three control mice received vehicle alone. […] Supernatants were collected and all samples were frozen at −20°C directly after preparation until further analysis by HPLC. Other organs including liver, spleen, kidneys, brain, adipose tissue and lungs were removed, washed and snap frozen immediately in liquid nitrogen. Bone marrow was flushed from both femurs and mononuclear cells were counted and frozen. The samples were stored at −20°C to avoid any metabolic activity. […] Femurs were removed and cleaned; bone marrow was flushed with 0.3 ml of PBS and single cell suspension was prepared by gentle flushing through needle and syringe. Nucleated cells were counted using Türk solution and bone marrow was stored at −20°C until assay. Parameters including distribution volume of the central compartment, elimination rate constant, plasma maximum concentration and micro constants were estimated. Clearance (Cl) and distribution volume at the steady state were calculated from the primary parameters. The plasma concentration versus time curves (AUC) were calculated from the model derived parameters, and the elimination half-lives were calculated from the slope of the terminal elimination phase. Bone marrow data were derived after adjustment of concentrations to 10^9 cells (= approx. 1 g of tissue). The pharmacokinetic modeling was performed using WinNonlin version 5.2 (Pharsight, USA).

[4] = system: CDK5/p25; parameters: method as in PMID 18574471; conditions: cited from earlier work
[5] = Stability of CR8 in plasma quality control samples and solution; type: physicochemical, human
Description: Four quality control samples at concentrations of 0.75, 1.5, 3.5 and 7.0 μg/ml were also prepared in triplicate and stored at room temperature, +4°C and −20°C for stability testing.
The stability of CR8 was determined in plasma samples using concentrations of 0.75, 1.5, 3.5 and 7.0 μg/ml (in triplicate). The samples were kept at room temperature, +4°C and −20°C and analyzed twice weekly for 2 months. Peak areas of all the samples were compared to peak areas obtained at time zero.

[6] = target: casein kinase 1 (CK1); parameters: method as in PMID 18574471; conditions: cited from earlier work
[7] = system: tumor cell lines; conditions: cited from earlier work
[8] = bone marrow vs plasma; cited from earlier work
[9] = given i.v. at the same dosage; cited from earlier work

## CC[C@H](CO)Nc1nc(NCc2ccc(-c3ccccn3)cc2)c2ncn(C(C)C)c2n1 [CR8]
[1]; Plasma, single oral 100 mg/kg
  Beta-HL: 3.10 h
  V2/F: 21.0
[1]; female, BALB/c, mouse, plasma, female BALB/c mice, read-out: Half-life (converted)
  half-life: ~3 h
[1]; female, BALB/c, mouse, plasma, iv, 50 mg/kg, plasma, 50 mg/kg intravenously, read-out: AUC
  AUC: ~45000 ng·h/mL
[1]; female, BALB/c, mouse, plasma, iv, 50 mg/kg, plasma, i.v. bolus 50 mg/kg, estimated, read-out: Cmax (maximum reached concentration)
  Cmax: > 100000 ng/mL
[1]; female, BALB/c, mouse, plasma, iv, 50 mg/kg, plasma, i.v. bolus 50 mg/kg, mice, read-out: AUC (area under time plasma concentration curve)
  AUC: 44400 ± 3300 ng·h/mL
[1]; female, BALB/c, mouse, plasma, iv, 50 mg/kg, plasma, i.v. bolus 50 mg/kg, read-out: Tα (first elimination half-life) (converted)
  half-life: 0.11 ± 0.01 h
[1]; female, BALB/c, mouse, plasma, iv, 50 mg/kg, plasma, i.v. bolus 50 mg/kg, read-out: Tβ (terminal elimination half-life) (converted)
  half-life: 2.95 ± 0.11 h
[1]; female, BALB/c, mouse, plasma, iv, i.v. bolus 50 mg/kg, read-out: CL (clearance) (converted)
  clearance: 0.383 mL/min
[1]; female, BALB/c, mouse, plasma, iv, i.v. bolus 50 mg/kg, read-out: Vss (distribution volume at steady state)
  Vd: 0.044 ± 0.004 L
[1]; female, BALB/c, mouse, plasma, mice, read-out: Elimination half-life (converted)
  half-life: ~3 h
[1]; female, BALB/c, mouse, plasma, oral, 100 mg/kg, oral 100 mg/kg vs i.v. 50 mg/kg, F=AUCpo*doseIV/AUCIV*dosepo
  bioavailability: ~100%
[1]; female, BALB/c, mouse, plasma, oral, 100 mg/kg, mice, read-out: Time of maximum concentrations (converted)
  Tmax: 0.5 h
[1]; female, BALB/c, mouse, plasma, po, 100 mg/kg, Plasma, single oral 100 mg/kg, read-out: AUC
  AUC: 96000 ng·h/mL
[1]; female, BALB/c, mouse, plasma, po, 100 mg/kg, Plasma, single oral 100 mg/kg, read-out: Cmax
  Cmax: 34300 ng/mL
[1]; female, BALB/c, mouse, plasma, po, 100 mg/kg, plasma, 100 mg/kg orally, read-out: AUC
  AUC: ~100000 ng·h/mL
[1]; female, BALB/c, mouse, plasma, po, 100 mg/kg, plasma, single oral 100 mg/kg, mice, read-out: AUC (area under time plasma concentration curve)
  AUC: 96300 ± 10500 ng·h/mL
[1]; female, BALB/c, mouse, plasma, po, 100 mg/kg, plasma, single oral 100 mg/kg, read-out: Cmax (maximum reached concentration)
  Cmax: 34300 ± 1940 ng/mL
[1]; female, BALB/c, mouse, plasma, po, 100 mg/kg, plasma, single oral 100 mg/kg, read-out: Tα (first elimination half-life) (converted)
  half-life: 1.3 ± 0.43 h
[1]; female, BALB/c, mouse, plasma, po, 100 mg/kg, plasma, single oral 100 mg/kg, read-out: Tβ (terminal elimination half-life) (converted)
  half-life: 3.1 ± 0.35 h
[1]; i.v. 50 mg/kg vs oral 100 mg/kg
  Cmax after i.v. compared to oral administration: 4 fold
[1]; single oral 100 mg/kg
  CL (clearance): 21 ± 2 mL/h
  Vss (distribution volume at steady state): 21 ± 3 mL
[2]
  Potency as CDK inhibitor relative to roscovitine: 2–4 fold
[3]; Adipose tissue
  AUC: 181 µg·h/g
  Beta-HL: 2.40 h
  V2/F: 38.2
  Cmax: 48700 ng/g
[3]; Bone marrow (10^9 cells = approx. 1 g)
  AUC: 34 µg·h/g
[3]; Bone marrow
  Beta-HL: 1.98 h
  V2/F: 84.5
  Cmax: 10600 ng/g
[3]; Brain
  AUC: 14 µg·h/g
  Beta-HL: 2.12 h
  V2/F: 447.5
  Cmax: 4100 ng/g
[3]; Kidney
  AUC: 145 µg·h/g
  Beta-HL: 2.62 h
  V2/F: 52.2
  Cmax: 36000 ng/g
[3]; Liver
  AUC: 197 µg·h/g
  Beta-HL: 2.43 h
  V2/F: 35.8
  Cmax: 52400 ng/g
[3]; Lung
  AUC: 77 µg·h/g
  Beta-HL: 2.58 h
  V2/F: 96.7
  Cmax: 19300 ng/g
[3]; Spleen
  AUC: 40 µg·h/g
  Beta-HL: 2.60 h
  V2/F: 74.5
  Cmax: 27700 ng/g
[3]; adipose tissue
  Tissue/plasma exposure ratio (% AUC organ vs. AUC plasma): 180%
[3]; adipose tissue, adipose tissue, read-out: Tissue/plasma exposure ratio (% AUC organ vs. AUC plasma)
  Kp: 1.88
[3]; bone marrow, bone marrow, concentrations normalized to tissue weight/g, read-out: Tissue/plasma exposure ratio (% AUC organ vs. AUC plasma)
  Kp: 0.3
[3]; brain, brain, read-out: Tissue/plasma exposure ratio (% AUC organ vs. AUC plasma; concentration in brain vs plasma)
  Kp: 0.15
[3]; kidney, kidney, read-out: Tissue/plasma exposure ratio (% AUC organ vs. AUC plasma)
  Kp: 1.5
[3]; liver, liver, read-out: Tissue/plasma exposure ratio (% AUC organ vs. AUC plasma)
  Kp: 2.05
[3]; lung, lung, read-out: Tissue/plasma exposure ratio
  Kp: 0.8
[3]; spleen, spleen, read-out: Tissue/plasma exposure ratio
  Kp: 0.5
[3]; liver
  Tissue/plasma exposure ratio (% AUC organ vs. AUC plasma): 200%
[4]
  IC50: 120 nM
[5]; plasma QC samples, 2 months at room temperature, +4°C or −20°C
  Stability (concentration of QC samples remaining vs time zero): approximately 97 ± 3.5%
[5]; room temperature, in both solution and plasma
  Time for which stable: 2 months
[6]
  IC50: 610 nM
[7]; different cell lines, read-out: Optimal concentration for pharmacological effect in-vitro in different cell lines (reported average IC50)
  IC50: ~700 nM and 700 nM
[7]; in-vitro, reference not given
  Anti-tumor IC50 values found in-vitro: 0.3 µg/mL

## CC[C@H](CO)Nc1nc(NCc2ccccc2)c2ncn(C(C)C)c2n1 [roscovitine]
[8]
  Distribution to bone marrow: 1.5%
[9]
  Reported half-life: approximately 1 hour
